The record followed here is PubChem BioAssay (NCI).

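1) Cells in 96-well plates. 2) Compound, 48 h, 5 concentrations. 3) Linear interpolation between surrounding doses. 4) Unreached endpoint = highest concentration. At the GI50, growth is halved. The concentration for full growth arrest is given as TGI.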

Test systems include HOP-62 NSCLC; TK-10 renal; UACC-257 melanoma; SF-268 CNS; KM12 colon; MDA-MB-231 breast; HL-60(TB) leukemia; OVCAR-3 ovarian; NCI-H460 lung; NCI-H522 lung.
Holding throughout (assay): NCI tumour cell line growth inhibition, 48 h

As for `CNC1C(OC2C(OC3C(O)C(O)C(O)C(O)C3O)OC(C)C2(O)CO)OC(CO)C(O)C1O` (centres undefined) (tested in a mixture with another compound), the TGI with HOP-62 NSCLC, in the test with TK-10 renal, in the test with UACC-257 melanoma, with SF-268 CNS, in the test on KM12 colon and in the test with MDA-MB-231 breast was above 100 µM each time. Further, the TGI in the test with HL-60(TB) leukemia, with OVCAR-3 ovarian, in the test with NCI-H460 lung and with NCI-H522 lung was above 100 µM throughout.
Turning to `Cc1ccccc1/C=C1\CN(C(=O)OC(C)(C)C)C/C(=C\c2ccccc2C)C1=O`, the GI50 with HOP-62 NSCLC was 3430 nM; in the test on TK-10 renal it was 3.65 µM; with UACC-257 melanoma, 3.12 µM; with SF-268 CNS it was 2950 nM; with KM12 colon, 2030 nM; in the test with MDA-MB-231 breast it was 3.49 µM. For the same compound, the GI50 in the test with HL-60(TB) leukemia was 2.47 µM; in the test on OVCAR-3 ovarian, 1850 nM; in the test with NCI-H460 lung, 2120 nM; in the test on NCI-H522 lung, 2200 nM. Also, the TGI stood at 11.3 µM in the test with HOP-62 NSCLC; 15 µM in the test on TK-10 renal; 9.92 µM in the test with UACC-257 melanoma; 10.6 µM in the test with SF-268 CNS; 4.68 µM in the test on KM12 colon; 12.6 µM in the test on MDA-MB-231 breast. The TGI amounted to 8.8 µM with HL-60(TB) leukemia, 3.65 µM in the test with OVCAR-3 ovarian, 4.27 µM in the test on NCI-H460 lung and 6.63 µM in the test with NCI-H522 lung.
`CCCCCCCCCC(CCCC(O)CC(=O)O)OC1OC(COC2OC(C)C(O)C(O)C2O)C(O)C(O)C1OC1OC(CO)C(O)C(O)C1OC1OC(C)C(O)C(O)C1O` (centres undefined): the GI50 with HOP-62 NSCLC is above 40000 nM; in the test on TK-10 renal it was above 40 µM; in the test on UACC-257 melanoma it was above 40 µM; in the test on SF-268 CNS, above 40000 nM; in the test with KM12 colon it was above 40000 nM; with MDA-MB-231 breast, above 40 µM. For the same compound, the GI50 in the test on HL-60(TB) leukemia is above 40 µM; in the test on OVCAR-3 ovarian, above 40000 nM; in the test on NCI-H460 lung, above 40000 nM; in the test on NCI-H522 lung, above 40000 nM. The TGI in the test with HOP-62 NSCLC, in the test with TK-10 renal, in the test on UACC-257 melanoma, with SF-268 CNS, with KM12 colon and in the test on MDA-MB-231 breast was above 40 µM throughout. Besides, the TGI with HL-60(TB) leukemia, in the test on OVCAR-3 ovarian, in the test with NCI-H460 lung and in the test with NCI-H522 lung was above 40 µM in each case.
Take `Nc1nc2c(c3cnccc13)C(c1cccc(Cl)c1)Cc1cnccc1-2` (centres undefined): the GI50 in the test with HOP-62 NSCLC is 441 nM; in the test with TK-10 renal, 0.696 µM; with UACC-257 melanoma it was 4.36 µM; in the test on SF-268 CNS, 741 nM; in the test on KM12 colon it was 409 nM; in the test with MDA-MB-231 breast it was 0.763 µM. In addition, the GI50 is 0.278 µM in the test on HL-60(TB) leukemia, 293 nM with OVCAR-3 ovarian, 385 nM in the test with NCI-H460 lung and 247 nM with NCI-H522 lung. In addition, the TGI with HOP-62 NSCLC turned out to be 16.3 µM; with TK-10 renal it was 13.7 µM; in the test on UACC-257 melanoma, 22.5 µM; in the test with SF-268 CNS, 16.5 µM; in the test on KM12 colon, 12.2 µM; in the test with MDA-MB-231 breast, 11 µM. For the same compound, the TGI in the test on HL-60(TB) leukemia was found to be 5.27 µM; with OVCAR-3 ovarian, 13.1 µM; in the test on NCI-H460 lung, 11.6 µM; in the test on NCI-H522 lung it was 0.718 µM.
In the case of `Cn1c(=S)sc2nc3ccccc3n2c1=S`, the TGI in the test on HOP-62 NSCLC is 35.2 µM; in the test on TK-10 renal it was 55.4 µM; in the test on UACC-257 melanoma, 28.4 µM; with SF-268 CNS, 24.7 µM; with KM12 colon it was 27.4 µM; with MDA-MB-231 breast, 38 µM. The TGI with HL-60(TB) leukemia was 5.07 µM; in the test on OVCAR-3 ovarian it was 25.4 µM; in the test on NCI-H460 lung, 27.9 µM; in the test with NCI-H522 lung it was 15.1 µM.
In the case of `N=c1ccn2c(n1)O[C@@H]1[C@@H](O)[C@H](CO)O[C@@H]12`, the GI50 in the test on HOP-62 NSCLC was 783 nM; in the test with TK-10 renal it was above 100 µM; with UACC-257 melanoma, 35 µM; in the test on SF-268 CNS, 4800 nM; in the test with KM12 colon, 27300 nM; in the test on MDA-MB-231 breast it was above 100 µM. Moreover, the GI50 in the test with HL-60(TB) leukemia was 8.41 µM; in the test on NCI-H460 lung it was 446 nM; in the test with NCI-H522 lung, 294 nM. Also, the TGI with HOP-62 NSCLC is 23 µM; with TK-10 renal it was above 100 µM; with UACC-257 melanoma, above 100 µM; in the test with SF-268 CNS, above 100 µM; in the test on KM12 colon it was above 100 µM; in the test with MDA-MB-231 breast, above 100 µM. In addition, the TGI in the test with HL-60(TB) leukemia, with OVCAR-3 ovarian, in the test with NCI-H460 lung and in the test with NCI-H522 lung was above 100 µM each time.
Turning to `Cc1ccc(NC(=O)c2nc(S(C)=O)oc2-c2ccc(F)cc2)cc1Nc1nccc(-c2cccnc2)n1` (centres undefined), the GI50 is 2950 nM in the test on HOP-62 NSCLC; 2.82 µM in the test with TK-10 renal; 2.72 µM in the test on UACC-257 melanoma; 2150 nM with SF-268 CNS; 2580 nM with KM12 colon; 1.94 µM in the test with MDA-MB-231 breast. Further, the GI50 in the test with HL-60(TB) leukemia was 3.06 µM; in the test with OVCAR-3 ovarian, 1870 nM; in the test with NCI-H460 lung, 2090 nM; in the test on NCI-H522 lung, 1050 nM. Further, the TGI with HOP-62 NSCLC stood at 8.04 µM; in the test on TK-10 renal, 6.25 µM; with UACC-257 melanoma it was 7.74 µM; in the test with SF-268 CNS, 4.61 µM; with KM12 colon it was 7.14 µM; in the test with MDA-MB-231 breast it was 4.38 µM. The TGI with HL-60(TB) leukemia was 10.9 µM; in the test on OVCAR-3 ovarian, 3.39 µM; in the test with NCI-H460 lung, 4.06 µM; in the test with NCI-H522 lung it was 3.04 µM.
As for `O=C(/C=C/c1cccnc1)c1ccccc1O`, the GI50 in the test on HOP-62 NSCLC is 17500 nM; in the test on TK-10 renal, 27.6 µM; with UACC-257 melanoma, 25.4 µM; with SF-268 CNS it was 26900 nM; in the test with KM12 colon, 32200 nM; in the test on MDA-MB-231 breast it was 17.7 µM. The GI50 in the test on HL-60(TB) leukemia is 18.1 µM; with OVCAR-3 ovarian, 20500 nM; in the test on NCI-H460 lung, 30800 nM; in the test with NCI-H522 lung, 16600 nM. Further, the TGI in the test on HOP-62 NSCLC was 45.5 µM; in the test on TK-10 renal, above 100 µM; in the test with UACC-257 melanoma, 60.3 µM; with SF-268 CNS it was 97.6 µM; in the test with KM12 colon, above 100 µM; in the test on MDA-MB-231 breast, 46.7 µM. The TGI in the test on HL-60(TB) leukemia was 43 µM; in the test on OVCAR-3 ovarian it was 55.2 µM; with NCI-H460 lung, above 100 µM; in the test with NCI-H522 lung, 48.7 µM.
